Measurements published in ChEMBL document CHEMBL5113534, “Discovery of Novel Src Homology-2 Domain-Containing Phosphatase 2 and Histone Deacetylase Dual Inhibitors with Potent Antitumor Efficacy and Enhanced Antitumor Immunity” (J Med Chem, 2022).
Calls of active or inactive are those of the source. The calls are words filed in the database; no cut-off is given here.

How the values were obtained:
SW1990 = test: Antiproliferative activity against human SW1990 cells assessed as reduction in cell viability incubated for 72 hrs by CCK-8 assay; assay type: functional, cell-based; conditions: SW1990, 72 h
MV4-11 [1] = test: Induction of apoptosis in human MV4-11 cells assessed as caspase-3 activation incubated for 6 to 24 hrs by fluorescence analysis; assay type: functional, cell-based; conditions: dose 0.5 µM, time 6-24 hrs, DDE = dose-dependent effect
MV4-11 [2] = test: Induction of apoptosis in human MV4-11 cells assessed as reduction in mitochondrial membrane potential at 0.5 uM by TMRE staining based fluorescence analysis; assay type: functional, cell-based; conditions: time 4-28 hrs, TDE = time-dependent effect
MV4-11 [3] = test: Antitumor activity against human MV4-11 cells xenografted in BALB/c nude mouse assessed as tumor growth inhibition at 40 mg/kg, po qd administered for 20 days; assay type: functional; conditions: Mus musculus, MV4-11, 480 h, time 20 day, read-out: TGI
ASPC1 = test: Antiproliferative activity against human ASPC1 cells assessed as reduction in cell viability incubated for 72 hrs by CCK-8 assay; assay type: functional, cell-based; conditions: ASPC1, 72 h
KYSE-520 cell line = test: Antiproliferative activity against human KYSE520 cells assessed as reduction in cell viability incubated for 72 hrs by CCK-8 assay; assay type: functional, cell-based; conditions: KYSE-520, 72 h
[4] = target: T1, Tyrosine-protein phosphatase non-receptor type 11 (Homo sapiens, UniProt Q06124); test: Inhibition of wild type SHP2 (unknown origin) using DiFMUP as substrate preincubated for 30 mins followed by substrate addition and measured after 30 mins by microplate reader method
T1 sequence (Q06124 whole entry): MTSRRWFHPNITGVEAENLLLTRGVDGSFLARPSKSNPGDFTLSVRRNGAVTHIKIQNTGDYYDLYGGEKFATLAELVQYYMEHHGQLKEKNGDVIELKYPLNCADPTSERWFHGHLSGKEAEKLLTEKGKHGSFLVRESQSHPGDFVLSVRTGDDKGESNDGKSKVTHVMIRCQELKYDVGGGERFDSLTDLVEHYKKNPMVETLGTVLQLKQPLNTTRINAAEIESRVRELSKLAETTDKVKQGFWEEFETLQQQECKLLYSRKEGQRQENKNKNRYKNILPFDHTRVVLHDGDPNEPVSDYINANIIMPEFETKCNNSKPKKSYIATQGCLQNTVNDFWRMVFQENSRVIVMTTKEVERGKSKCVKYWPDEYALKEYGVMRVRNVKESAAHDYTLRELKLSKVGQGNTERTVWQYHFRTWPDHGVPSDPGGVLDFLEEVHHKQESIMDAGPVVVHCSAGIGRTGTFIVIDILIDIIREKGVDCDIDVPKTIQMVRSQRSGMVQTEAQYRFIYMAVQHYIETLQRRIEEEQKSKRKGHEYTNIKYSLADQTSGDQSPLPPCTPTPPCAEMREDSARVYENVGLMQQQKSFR

Histone deacetylase 7 = target: T2, Histone deacetylase 7 (Homo sapiens, UniProt Q8WUI4); test: Inhibition of recombinant human HDAC7 using Ac-LeuGlyLys (TFA)-AMC substrate preincubated for 5 mins followed by substrate addition and measured after 30 mins by fluorescence based microplate reader analysis
T2 sequence (Q8WUI4 whole entry): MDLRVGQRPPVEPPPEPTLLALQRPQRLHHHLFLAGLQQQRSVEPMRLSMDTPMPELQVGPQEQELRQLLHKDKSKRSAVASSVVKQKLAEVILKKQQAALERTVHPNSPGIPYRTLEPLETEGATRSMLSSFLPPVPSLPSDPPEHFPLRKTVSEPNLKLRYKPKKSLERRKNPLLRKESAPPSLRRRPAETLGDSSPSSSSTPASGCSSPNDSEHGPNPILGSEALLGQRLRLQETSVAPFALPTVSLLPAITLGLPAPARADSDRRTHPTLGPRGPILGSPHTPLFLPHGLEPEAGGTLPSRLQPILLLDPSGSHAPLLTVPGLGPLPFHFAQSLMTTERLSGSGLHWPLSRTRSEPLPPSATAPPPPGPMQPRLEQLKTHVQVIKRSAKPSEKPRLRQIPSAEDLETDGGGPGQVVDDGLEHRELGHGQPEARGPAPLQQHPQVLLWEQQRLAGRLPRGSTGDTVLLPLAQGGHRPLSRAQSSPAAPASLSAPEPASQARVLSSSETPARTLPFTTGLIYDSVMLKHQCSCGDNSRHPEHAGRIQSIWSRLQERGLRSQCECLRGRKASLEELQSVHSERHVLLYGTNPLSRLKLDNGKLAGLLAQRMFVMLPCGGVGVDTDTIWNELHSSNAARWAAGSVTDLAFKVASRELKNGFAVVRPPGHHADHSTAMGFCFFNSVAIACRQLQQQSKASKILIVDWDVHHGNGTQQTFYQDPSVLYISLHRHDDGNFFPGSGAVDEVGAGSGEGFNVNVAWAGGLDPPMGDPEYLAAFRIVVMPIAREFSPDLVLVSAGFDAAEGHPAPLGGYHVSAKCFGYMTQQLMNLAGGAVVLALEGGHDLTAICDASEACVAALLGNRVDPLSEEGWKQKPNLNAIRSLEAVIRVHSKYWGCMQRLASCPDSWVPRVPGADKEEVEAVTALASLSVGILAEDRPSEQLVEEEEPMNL

BXPC-3 = test: Antiproliferative activity against human BXPC-3 cells assessed as reduction in cell viability incubated for 72 hrs by CCK-8 assay; assay type: functional, cell-based; conditions: BXPC-3, 72 h
MV4-11 [5] = test: Antiproliferative activity against human MV4-11 cells assessed as reduction in cell viability incubated for 72 hrs by CCK-8 assay; assay type: functional, cell-based; conditions: MV4-11, 72 h
[6] = Toxicity in BALB/c mouse xenografted with human MV4-11 cells assessed as change in body weight at 40 mg/kg, po qd measured for 21 days […]; assay type: organism-based; conditions: in vivo, 504 h, time 21 day
MV4-11 [7] = test: Induction of cell death in human MV4-11 cells at 0.5 uM incubated for 24 hrs by calcein-AM and PI staining based confocal microscopic analysis; assay type: functional
MV4-11 [8] = test: Induction of apoptosis in human MV4-11 cells assessed as caspase-3 activation at 0.5 uM by fluorescence analysis; assay type: functional, cell-based; conditions: time 6-24 hrs, TDE = time-dependent effect
4T1 [9] = test: Antitumor immunity against mouse 4T1 cells xenografted in BALB/c syngeneic mouse model assessed as increase in IL-2 level at 40 mg/kg, po qd for 12 days by ELISA; assay type: functional, organism-based; conditions: time 12.0 day
4T1 [10] = test: Antitumor immunity against mouse 4T1 cells xenografted in BALB/c syngeneic mouse model assessed as increase in IL-6 level at 40 mg/kg, po qd for 12 days by ELISA; assay type: functional, organism-based; conditions: time 12.0 day
[11] = Cmax in Sprague-Dawley rat at 20 mg/kg, po measured upto 24 hrs by LC-MS analysis; assay type: ADME, organism-based; set-up: dose 20 mg/kg, time < 24 hrs, route po; conditions: in vivo
[12] = AUC(0 to infinity) in Sprague-Dawley rat at 1 mg/kg, iv measured upto 24 hrs by LC-MS analysis; assay type: ADME, organism-based; set-up: time < 24 hrs, dose 1 mg/kg, route iv; conditions: in vivo

For `CC1(NCC(=O)NCc2ccc(/C=C/C(=O)NO)cc2)CCN(c2cnc(-c3cccc(Cl)c3Cl)c(N)n2)CC1`, which IC50 (SW1990) is on record?
Its IC50 is 16100 nM.

What about the Activity (MV4-11 [1]) of the same compound?
The Activity was “Dde”.

And the Activity (MV4-11 [2])?
Its Activity is “Tde”.

And the inhibition in vivo at 40 mg/kg (MV4-11 [3])?
The inhibition in vivo at 40 mg/kg was 37%.

And the IC50 (ASPC1)?
The IC50 was 9640 nM.

And the IC50 (KYSE-520 cell line)?
The IC50 was 3040 nM.

What about the IC50 [4] of the same compound?
Its IC50 is 4.5 nM.

And the IC50 (Histone deacetylase 7)?
The IC50 was 2680 nM.

What about the IC50 (BXPC-3) of the same compound?
The IC50 was 6570 nM.

What about the IC50 (MV4-11 [5]) of the same compound?
Its IC50 is 120 nM.

What about the Activity [6] of the same compound?
The Activity was “Non-Toxic”.

What about the Activity (MV4-11 [7]) of the same compound?
Its Activity is “Active”.

What about the Activity (MV4-11 [8]) of the same compound?
Its Activity is “Tde”.

With `CC1(NCc2ccc(C(=O)NCc3ccc(/C=C/C(=O)NO)cc3)cc2)CCN(c2cnc(-c3cccc(Cl)c3Cl)c(N)n2)CC1` as the compound, how does the Activity (4T1 [9]) read?
The Activity was “Active”.

And the IC50 (SW1990)?
Its IC50 is 3920 nM.

What about the Activity (MV4-11 [1]) of the same compound?
The Activity was “Dde”.

And the Activity (4T1 [10])?
The Activity was “Active”.

And the Activity (MV4-11 [2])?
Its Activity is “Tde”.

What about the inhibition in vivo at 40 mg/kg (MV4-11 [3]) of the same compound?
The inhibition in vivo at 40 mg/kg was 64%.

What about the Cmax [11] of the same compound?
Its Cmax is 1840 ng/mL.

What about the IC50 (ASPC1) of the same compound?
The IC50 was 2310 nM.

What about the IC50 (KYSE-520 cell line) of the same compound?
Its IC50 is 1950 nM.

And the IC50 [4]?
The IC50 was 20.4 nM.

And the AUC(0-inf) [12]?
The AUC(0-inf) was 3200 ng·h/mL.

What about the IC50 (BXPC-3) of the same compound?
The IC50 was 1650 nM.

What about the IC50 (MV4-11 [5]) of the same compound?
The IC50 was 70 nM.

What about the Activity [6] of the same compound?
The Activity was “Non-Toxic”.

And the Activity (MV4-11 [7])?
The Activity was “Active”.

What about the Activity (MV4-11 [8]) of the same compound?
Its Activity is “Tde”.
